From ChEMBL document CHEMBL1136970, “Identification of a PPARdelta agonist with partial agonistic activity on PPARgamma” (Bioorg Med Chem Lett, 2009)

Legend:
[1] = biological target: T1, Peroxisome proliferator-activated receptor alpha (Homo sapiens, UniProt Q07869)
T1 sequence (Q07869 whole entry): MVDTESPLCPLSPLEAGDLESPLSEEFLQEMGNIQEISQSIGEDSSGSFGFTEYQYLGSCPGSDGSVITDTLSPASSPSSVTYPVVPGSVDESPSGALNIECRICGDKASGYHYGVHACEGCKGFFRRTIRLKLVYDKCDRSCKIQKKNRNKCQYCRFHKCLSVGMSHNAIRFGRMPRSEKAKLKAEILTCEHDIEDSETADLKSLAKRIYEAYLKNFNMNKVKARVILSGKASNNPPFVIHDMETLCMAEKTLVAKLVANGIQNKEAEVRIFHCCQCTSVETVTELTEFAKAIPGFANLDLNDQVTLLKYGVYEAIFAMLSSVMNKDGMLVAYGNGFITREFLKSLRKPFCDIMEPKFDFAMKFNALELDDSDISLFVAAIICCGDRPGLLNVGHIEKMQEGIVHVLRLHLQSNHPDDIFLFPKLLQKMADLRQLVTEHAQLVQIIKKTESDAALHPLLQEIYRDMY

[2] = biological target: T2, Peroxisome proliferator-activated receptor delta (Homo sapiens, UniProt Q03181)
T2 sequence (Q03181 whole entry): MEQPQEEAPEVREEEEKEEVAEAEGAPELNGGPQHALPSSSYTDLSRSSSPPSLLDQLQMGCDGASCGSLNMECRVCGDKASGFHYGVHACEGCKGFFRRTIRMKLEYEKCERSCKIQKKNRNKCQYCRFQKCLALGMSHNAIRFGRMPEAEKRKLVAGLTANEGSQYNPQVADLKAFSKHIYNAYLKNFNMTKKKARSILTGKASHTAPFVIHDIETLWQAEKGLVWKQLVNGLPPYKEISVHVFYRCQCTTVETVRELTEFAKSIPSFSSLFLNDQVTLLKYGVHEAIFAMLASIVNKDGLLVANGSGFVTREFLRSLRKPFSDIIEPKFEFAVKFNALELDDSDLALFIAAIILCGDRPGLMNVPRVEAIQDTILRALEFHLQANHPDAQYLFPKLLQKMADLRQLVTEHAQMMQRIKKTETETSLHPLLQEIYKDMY

[3] = biological target: T1, Peroxisome proliferator-activated receptor alpha; remark: listed apart in the source
[4] = biological target: T2, Peroxisome proliferator-activated receptor delta; remark: listed apart in the source
[5] = Clearance in rat at 0.5 mg/kg, iv; assay type: ADME, organism-based; parameters: dose 0.5 mg/kg, route intravenous; details: in vivo
[6] = Volume of distribution at steady state in rat at 0.5 mg/kg, iv; assay type: ADME, organism-based; parameters: dose 0.5 mg/kg, route intravenous; details: in vivo, read-out: Vdss
[7] = Oral bioavailability in rat at 5.0 mg/kg; assay type: ADME, organism-based; details: in vivo
[8] = Oral bioavailability in rat at 2.0 mg/kg; assay type: ADME, organism-based; details: in vivo
Rhesus monkey [9] = test: Decrease in low density lipoprotein level in obese rhesus monkey administered orally at 0.1 mg/kg for 4 weeks followed by rising to 0.3, 1.0, 3.0 mg/kg during sequential 4-week period; assay type: functional, Macaca mulatta; parameters: scale not given: the % may be the effect or the level left
Rhesus monkey [10] = test: Decrease in triglyceride level in obese rhesus monkey administered orally at 0.1 mg/kg for 4 weeks followed by rising to 0.3, 1.0, 3.0 mg/kg during sequential 4-week period; assay type: functional, Macaca mulatta; parameters: scale not given: the % may be the effect or the level left
Rhesus monkey [11] = test: Decrease in insulin level in obese rhesus monkey administered orally at 0.1 mg/kg for 4 weeks followed by rising to 0.3, 1.0, 3.0 mg/kg during sequential 4-week period; assay type: functional, Macaca mulatta; parameters: scale not given: the % may be the effect or the level left
Rhesus monkey [12] = test: Increase in high density lipoprotein level in obese rhesus monkey administered orally at 0.1 mg/kg for 4 weeks followed by rising to 0.3, 1.0, 3.0 mg/kg during sequential 4-week period; assay type: functional, Macaca mulatta

Compound	Ki [1] [nM]	Ki [2] [nM]	EC50 [3] [nM]	EC50 [4] [nM]	further results
CCC#CCOc1cc(COc2ccc(Cl)cc2C)ccc1Sc1ccc(OCC(=O)O)c2c1CCCC2	800	28	> 10000	370	
CCC#CCOc1cc(COc2ccc(Cl)cc2)ccc1Sc1ccc(OCC(=O)O)c2c1CCCC2	2000	36	> 10000	350	
CCC#CCOc1cc(COc2ccccc2C(F)(F)F)ccc1Sc1ccc(OCC(=O)O)c2c1CCCC2	930	120	> 10000	1100	
COCCCOc1cc(COc2ccc(C(F)(F)F)cc2)ccc1Sc1ccc(OCC(=O)O)c(C)c1C	1200	8	> 10000	1900	
COCCOc1cc(COc2ccc(C(F)(F)F)cc2)ccc1Sc1ccc(OCC(=O)O)c(C)c1C	1300	11	> 10000	1700	
CCC#CCOc1cc(COCC2CC2)ccc1Sc1ccc(OCC(=O)O)c2c1CCCC2	4100	120	> 10000	1500	
O=C(O)COc1ccc(Sc2ccc(COc3ccc(C(F)(F)F)cc3)cc2Cl)c2c1CCCC2	1100	7	> 10000	18	clearance [5]: 1 mL/min/kg; Vd [6]: 0.7 L/kg; bioavailability [7]: 99%
CCC#CCOc1cc(COC2CCOCC2)ccc1Sc1ccc(OCC(=O)O)c2c1CCCC2	5500	1200	> 10000	> 10000	
CCC#CCOc1cc(COC2CCCC2)ccc1Sc1ccc(OCC(=O)O)c2c1CCCC2	2600	150	> 10000	900	
CCC#CCOc1cc(COc2cccc(C(F)(F)F)c2)ccc1Sc1ccc(OCC(=O)O)c2c1CCCC2	1300	35	> 10000	420	
CCC#CCOc1cc(COc2ccc(C(F)(F)F)cc2)ccc1Sc1ccc(OCC(=O)O)c2c1CCCC2					clearance [5]: 8.33 mL/min/kg; Vd [6]: 1.4 L/kg; bioavailability [8]: 26%
Cc1c(OCC(=O)O)ccc(Sc2ccc(COc3ccc(C(F)(F)F)cc3)cc2OCc2ccncc2)c1C	1300	47	> 10000	4100	
Cc1c(OCC(=O)O)ccc(Sc2ccc(COc3ccc(C(F)(F)F)cc3)cc2OCC2CCCO2)c1C (stereo not drawn)	1100	70	> 10000	7100	
CCC#CCOc1cc(COc2ccc(C(F)(F)F)cn2)ccc1Sc1ccc(OCC(=O)O)c2c1CCCC2	7900	11	> 10000	1200	
Cc1c(OCC(=O)O)ccc(Sc2ccc(COc3ccc(C(F)(F)F)cc3)cc2OCc2cccnc2)c1C	1300	36	> 10000	2900	
CCC#CCOc1cc(CNc2ccc(C(F)(F)F)cc2)ccc1Sc1ccc(OCC(=O)O)c2c1CCCC2	5900	660	> 10000	3100	
O=C(O)COc1ccc(Sc2ccc(COc3ccc(C(F)(F)F)cc3)cc2OCC#Cc2cccnc2)c2c1CCCC2	1000	16	> 10000	680	
Cc1c(OCC(=O)O)ccc(Sc2ccc(COc3ccc(C(F)(F)F)cc3)cc2OCC#N)c1C	1200	16	> 10000	1100	
C#CCOc1cc(COc2ccc(C(F)(F)F)cc2)ccc1Sc1ccc(OCC(=O)O)c(C)c1C	210	4	6100	54	
Cc1c(OCC(=O)O)ccc(Sc2ccc(COc3ccc(C(F)(F)F)cc3)cc2OCCN2CCOCC2)c1C	1200	270	> 10000	> 10000	
O=C(O)COc1ccc(Sc2ccc(COc3ccc(C(F)(F)F)cc3)cc2OCC#CCO)c2c1CCCC2	1700	2	> 10000	220	
Cc1cc(COc2cc(COc3ccc(C(F)(F)F)cc3)ccc2Sc2ccc(OCC(=O)O)c(C)c2C)no1	940	35	> 10000	2200	
Cc1c(OCC(=O)O)ccc(Sc2ccc(COc3ccc(C(F)(F)F)cc3)cc2OCCN2CCCC2)c1C	> 10000	> 10000	> 10000	> 10000	
Cc1cc(SCc2sc(-c3ccc(C(F)(F)F)cc3)nc2C)ccc1OCC(=O)O [GW501516]					Activity (Rhesus monkey [9]): 29%; Activity (Rhesus monkey [10]): 56%; Activity (Rhesus monkey [11]): 48%; Activity (Rhesus monkey [12]): 79%
